ChEMBL document CHEMBL1144467, “Effect of topical microbicides on infectious human immunodeficiency virus type 1 binding to epithelial cells” (2007)
Activity calls are given as the source filed them. The rule behind the calls is not given here.

What was measured:
[1] = system: Human immunodeficiency virus 1; assay: Inhibition of HIV1 LAI binding to human A431 cells relative to control; format: functional, organism-based; conditions: A-431
[2] = system: Human immunodeficiency virus 1; assay: Inhibition of HIV1 BaL binding to human Caco-2 cells relative to control; format: functional, organism-based
[3] = system: Human immunodeficiency virus 1; assay: Inhibition of HIV1 LAI binding to human Caco-2 cells relative to control; format: functional, organism-based
[4] = system: Human immunodeficiency virus 1; assay: Antiviral activity against HIV1 BaL assessed as logReduction in viral transmission from human A431 cells to human PBMC by ELISA; format: functional
[5] = system: Human immunodeficiency virus 1; assay: Inhibition of HIV1 BaL binding to human A431 cells relative to control; format: functional, organism-based; conditions: A-431

**Q.** Which Activity [1] does the source give for `CC(C)=CCOc1cc(NC(=S)c2ccoc2C)ccc1Cl` [UC 781] here?
**A.** Its Activity is “inactive”.

**Q.** What about the Activity [2] of the same compound?
**A.** Its Activity is “inactive”.

**Q.** And the Activity [3]?
**A.** The Activity was “inactive”.

**Q.** And the Activity [4]?
**A.** Its Activity is 6.1.

**Q.** What about the Activity [5] of the same compound?
**A.** The Activity was “inactive”.
